Reference: patent US8053583B2, “Anti-cancer compound and manufacturing method thereof” (National Defense Medical Center, priority 2008, dated 2011)
Entries after “also recorded” stand apart in the source; their conditions may differ.

Experiments:
[1] = system: GBM 8401 (human brain glioblastoma) cells; assay: MTT colorimetric assay, GBM 8401 cells; conditions: for viability at 10 µM: Homo sapiens, read-out: Cell viability (%) GBM 8401, conc. 10 μM; for inhibition of proliferation of tumor cells GBM 8401 (in words): primary screening, 10 μM, criterion viability less than 80%
From the text: (§1) MTT (tetrazole) assay used to determine tumor viability is based on measurement of the activity of dehydrogenase to determine cell growth conditions. In live cells, dehydrogenase in active mitochondria converts yellow MTT [3-(4,5-dimethylthiazol-2-yl)-2,5-diphenyltetra zolium bromide] into purple formazan on the reductive cleavage of its tetrazolium ring. The formazan crystal is examined under the microscope. While the mitochondria in dead cells are without active dehydrogenase, no crystal is generated and the color remains yellow. After adding MTT into cell cultures and reacting for 2 hours, the amount of generated formazan precipitate is proportional to total amount of dehydrogenase. Removing the culture medium, add DMSO to dissolve the purple formazan precipitate. Then measure the absorbance of the precipitate by is measured by the spectrophotometer at 560/670 nm so as to learn inhibition effect of drugs acted on normal cells and tumor cells.
(§2) GBM 8401, GBM 8901 (human brain glioblastoma) and SVG p12 (human brain astroglia)cells line are selected to be used in 96 well petri dishes. Each well is filled into the same amount of cells-about 5000 cells per well. After being cultured for 24 hours and cells anchor/attach, the 96 wells are divided into two groups-an experimental group and a control group containing no samples. The samples are diluted into 10 μg/mL by culture medium. Take 200 μL of each sample and add into the experimental group and the control group is added with 200 μL culture medium without samples. After 46 hours of culture, each well is added with 10 μL MTT solution, incubate cells at 37° C., 5% CO2 for 2 hours.
(§3) Then each well is added with 100 μL, dissolving formazan. Shaking for 10 minutes and measure the absorbance at 560/670 nm of the sample by the spectrometer. The data of the experimental group is divided by the data of the control group to get the estimated cell viability.
(§4) Three cell lines-GBM 8401, GBM 8901, SVG p12 (normal) are used in cytotoxicity tests of 1,8-bis-substituted amidoanthraquinone. After reacting with the drug for 46 hours, the cells are reacted with certain amount of MTT solution. After 2 hours, DMSO is used to dissolve formazan and O.D. (optical density) at 560/670 nm is measured. Then calculate the radios of the experimental groups (with drugs) to the control groups (without drugs).

[2] = system: GBM 8901 (human brain glioblastoma) cells; assay: MTT colorimetric assay, GBM 8901 cells; conditions: for viability at 10 µM: Homo sapiens, read-out: Cell viability (%) GBM 8901, conc. 10 μM; for inhibition of growth of tumor cells GBM 8901 (in words): primary screening, 10 μM, criterion viability less than 80%
From the text: as §1, §2, §3, §4

[3] = MTT colorimetric assay, normal SVG p12 cells; conditions: human, SVG p12 cells (normal human brain astroglia), Cell viability (%) SVG p12, conc. 10 μM, 46 hours with drug, then 2 hours MTT, ratio to control group without drug
From the text: as §1, §2, §3, §4

[4] = 46 hours with drug, then 2 hours MTT, ratio to control group without drug
[5] = conc. 10 μM, 46 hours with drug, then 2 hours MTT, ratio to control group without drug

COC(=O)CNCC(=O)Nc1cccc2c1C(=O)c1c(NC(=O)CNCC(=O)OC)cccc1C2=O [Compound 3a, 1,8-Bis[2-(glycinmethyl ester)acetamido]anthraquinone]
viability at 10 µM [1, 4]: 95 ± 10%
viability at 10 µM [2, 4]: 104 ± 2%
melting point: 173 to 174 °C
viability at 46 h, 10 μM [3]: 93 ± 6%

COC(=O)[C@H]1CCCN1CC(=O)Nc1cccc2c1C(=O)c1c(NC(=O)CN3CCC[C@H]3C(=O)OC)cccc1C2=O [Compound 3c, 1,8-Bis[2-(prolinemethyl ester)acetamido]anthraquinone]
viability at 10 µM [1, 4]: 83 ± 15%
viability at 10 µM [2, 4]: 96 ± 3%
melting point: 170 to 171 °C
viability at 46 h, 10 μM [3]: 121 ± 5%

COC(=O)[C@@H](NCC(=O)Nc1cccc2c1C(=O)c1c(NC(=O)CN[C@@H](C(=O)OC)C(C)C)cccc1C2=O)C(C)C [Compound 3d, (L)-1,8-Bis[2-(valinemethyl ester)acetamido]anthraquinone]
viability at 10 µM [1, 4]: 99 ± 40%
viability at 10 µM [2, 4]: 97 ± 22%
melting point: 150 to 151 °C
viability at 46 h, 10 μM [3]: 87 ± 7%

COC(=O)CN(C)CC(=O)Nc1cccc2c1C(=O)c1c(NC(=O)CN(C)CC(=O)OC)cccc1C2=O [Compound 3f, 1,8-Bis[2-(sacrocinemethyl ester)acetamido]anthraquinone]
viability at 10 µM [1, 4]: 130 ± 20%
viability at 10 µM [2, 4]: 107 ± 5%
melting point: 129 to 130 °C
viability at 46 h, 10 μM [3]: 172 ± 2%

COC(=O)[C@H](CC(C)C)NCC(=O)Nc1cccc2c1C(=O)c1c(NC(=O)CN[C@H](CC(C)C)C(=O)OC)cccc1C2=O [Compound 3g, 1,8-Bis[2-(leucinemethyl ester)acetamido]anthraquinone]
viability at 10 µM [1, 4]: 111 ± 8%
viability at 10 µM [2, 4]: 89 ± 4%
melting point: 238 to 239 °C
viability at 46 h, 10 μM [3]: 153 ± 11%

COC(=O)[C@H](C)NCC(=O)Nc1cccc2c1C(=O)c1c(NC(=O)CN[C@H](C)C(=O)OC)cccc1C2=O [Compound 3i, (D)-1,8-Bis[2-(alalinemethyl ester)acetamido]anthraquinone]
Cell viability (%) GBM 8401 [1, 5]: 64 ± 13%
inhibition of proliferation of tumor cells GBM 8401 (in words) [1]: inhibit proliferation; also recorded: quite good inhibition effects
Cell viability (%) GBM 8901 [2, 5]: 99 ± 11%

CC(C)CNCC(=O)Nc1cccc2c1C(=O)c1c(NC(=O)CNCC(C)C)cccc1C2=O [Compound 3k, 1,8-Bis[2-(isobutylamino)acetamido]anthraquinone]
viability at 10 µM [1, 4]: 95 ± 12%
viability at 10 µM [2, 4]: 57 ± 16%
inhibition of growth of tumor cells GBM 8901 (in words) [2]: inhibit growth

CCN(CC)CC(=O)Nc1cccc2c1C(=O)c1c(NC(=O)CN(CC)CC)cccc1C2=O [Compound 3l, 1,8-Bis[2-(diethylamino)acetamido]anthraquinone]
viability at 10 µM [1, 4]: 91 ± 17%
viability at 10 µM [2, 4]: 94 ± 26%
melting point: 228 to 229 °C
viability at 46 h, 10 μM [3]: 123 ± 13%

CN(C)CC(=O)Nc1cccc2c1C(=O)c1c(NC(=O)CN(C)C)cccc1C2=O [Compound 3m, 1,8-Bis[2-(dimethylamino)acetamido]anthraquinone]
viability at 10 µM [1, 4]: 60 ± 5%
inhibition of proliferation of tumor cells GBM 8401 (in words) [1]: inhibit proliferation; also recorded: quite good inhibition effects
viability at 10 µM [2, 4]: 84 ± 9%
viability at 46 h, 10 μM [3]: > 80%

CCCN(CCC)CC(=O)Nc1cccc2c1C(=O)c1c(NC(=O)CN(CCC)CCC)cccc1C2=O [Compound 3n, 1,8-Bis[2-(dipropylamino)acetamido]anthraquinone]
viability at 10 µM [1, 4]: 106 ± 24%
viability at 10 µM [2, 4]: 73 ± 5%
inhibition of growth of tumor cells GBM 8901 (in words) [2]: inhibit growth
viability at 46 h, 10 μM [3]: 73 ± 30%

CC(C)NCC(=O)Nc1cccc2c1C(=O)c1c(NC(=O)CNC(C)C)cccc1C2=O [Compound 3o, 1,8-Bis[2-(isopropylamino)acetamido]anthraquinone]
viability at 10 µM [1, 4]: 4 ± 1%
inhibition of proliferation of tumor cells GBM 8401 (in words) [1]: inhibit proliferation; also recorded: quite good inhibition effects
viability at 10 µM [2, 4]: 5 ± 1%
inhibition of growth of tumor cells GBM 8901 (in words) [2]: inhibit growth
viability at 46 h, 10 μM [3]: 4 ± 1%

CCNCC(=O)Nc1cccc2c1C(=O)c1c(NC(=O)CNCC)cccc1C2=O [Compound 3p, 1,8-Bis[2-(ethanamino)acetamido]anthraquinone]
viability at 10 µM [1, 4]: 2 ± 1%
inhibition of proliferation of tumor cells GBM 8401 (in words) [1]: inhibit proliferation; also recorded: quite good inhibition effects
viability at 10 µM [2, 4]: 4 ± 1%
inhibition of growth of tumor cells GBM 8901 (in words) [2]: inhibit growth
viability at 46 h, 10 μM [3]: 3 ± 1%

O=C(CNCc1cccc(C(F)(F)F)c1)Nc1cccc2c1C(=O)c1c(NC(=O)CNCc3cccc(C(F)(F)F)c3)cccc1C2=O [Compound 3q, 1,8-Bis [2-(3-(trifluoromethyl)benzylamino)acetamido]anthraquinone]
viability at 10 µM [1, 4]: 120 ± 26%
viability at 10 µM [2, 4]: 83 ± 10%
melting point: 190 to 191 °C
viability at 46 h, 10 μM [3]: 135 ± 20%

CCN(C)CC(=O)Nc1cccc2c1C(=O)c1c(NC(=O)CN(C)CC)cccc1C2=O [Compound 3r, 1,8-Bis[2-(ethylmethylamino)acetamido]anthraquinone]
viability at 10 µM [1, 4]: 90 ± 2%
viability at 10 µM [2, 4]: 98 ± 12%
melting point: 186 to 187 °C
viability at 46 h, 10 μM [3]: 125 ± 7%

CCCN(C)CC(=O)Nc1cccc2c1C(=O)c1c(NC(=O)CN(C)CCC)cccc1C2=O [Compound 3s]
viability at 10 µM [1, 4]: 103 ± 9%
viability at 10 µM [2, 4]: 107 ± 9%
melting point: 159 to 160 °C
viability at 46 h, 10 μM [3]: 132 ± 3%

COC(=O)[C@H](COC(C)(C)C)NCC(=O)Nc1cccc2c1C(=O)c1c(NC(=O)CN[C@H](COC(C)(C)C)C(=O)OC)cccc1C2=O [Compound 3t, 1,8-Bis[2-(tert-butyl-serinemethyl ester)acetamido]anthraquinone]
viability at 10 µM [1, 4]: 98 ± 19%
viability at 10 µM [2, 4]: 69 ± 4%
inhibition of growth of tumor cells GBM 8901 (in words) [2]: inhibit growth
viability at 46 h, 10 μM [3]: > 80%

CCN(CC)CCC(=O)Nc1cccc2c1C(=O)c1c(NC(=O)CCN(CC)CC)cccc1C2=O [Compound 4a, 1,8-Bis[3-(diethylamino)propionamido]anthraquinone]
viability at 10 µM [1, 4]: 4%
viability at 10 µM [2, 4]: 3 ± 2%
melting point: 160 to 161 °C
viability at 46 h, 10 μM [3]: 3%

CC(C)CNCCC(=O)Nc1cccc2c1C(=O)c1c(NC(=O)CCNCC(C)C)cccc1C2=O [Compound 4b, 1,8-Bis[3-(isobutylamino)propionamido]anthraquinone]
viability at 10 µM [1, 4]: 4 ± 1%
viability at 10 µM [2, 4]: 7 ± 3%
melting point: 224 to 225 °C
viability at 46 h, 10 μM [3]: 4%

O=C(CCNCc1cc(F)cc(F)c1)Nc1cccc2c1C(=O)c1c(NC(=O)CCNCc3cc(F)cc(F)c3)cccc1C2=O [Compound 4c, 1,8-Bis[3-(3,5-difluorobenzylamino)propionamido]anthraquinone]
viability at 10 µM [1, 4]: 14 ± 1%
viability at 10 µM [2, 4]: 11 ± 9%
melting point: 190 to 191 °C
viability at 46 h, 10 μM [3]: > 80%

CC(C)(C)OC(=O)NCCNCCC(=O)Nc1cccc2c1C(=O)c1c(NC(=O)CCNCCNC(=O)OC(C)(C)C)cccc1C2=O [Compound 4d, 1,8-Bis[2-(N-Boc-ethanediamino)propionamido]anthraquinone]
viability at 10 µM [1, 4]: 10 ± 5%
viability at 10 µM [2, 4]: 4%
melting point: 101 to 102 °C
viability at 46 h, 10 μM [3]: 8 ± 1%

CN(C)CCNCCC(=O)Nc1cccc2c1C(=O)c1c(NC(=O)CCNCCN(C)C)cccc1C2=O [Compound 4e, 1,8-Bis[2-(dimethylethanediamino)propionamido]anthraquinone]
viability at 10 µM [1, 4]: 14 ± 2%
viability at 10 µM [2, 4]: 10 ± 5%
melting point: 100 to 102 °C
viability at 46 h, 10 μM [3]: 13 ± 3%

CN(C)CCC(=O)Nc1cccc2c1C(=O)c1c(NC(=O)CCN(C)C)cccc1C2=O [Compound 4f]
viability at 10 µM [1, 4]: 3%
viability at 10 µM [2, 4]: 7 ± 3%
melting point: 116 to 117 °C
viability at 46 h, 10 μM [3]: 4 ± 3%

CCCN(CCC)CCC(=O)Nc1cccc2c1C(=O)c1c(NC(=O)CCN(CCC)CCC)cccc1C2=O [Compound 4g]
viability at 10 µM [1, 4]: 5 ± 1%
viability at 10 µM [2, 4]: 8 ± 2%
melting point: 129 to 130 °C
viability at 46 h, 10 μM [3]: 4%

CNCCC(=O)Nc1cccc2c1C(=O)c1c(NC(=O)CCNC)cccc1C2=O [Compound 4h]
viability at 10 µM [1, 4]: 9 ± 2%
viability at 10 µM [2, 4]: 10 ± 1%
melting point: 233 to 234 °C
viability at 46 h, 10 μM [3]: 4%

CC(C)NCCC(=O)Nc1cccc2c1C(=O)c1c(NC(=O)CCNC(C)C)cccc1C2=O [Compound 4i]
viability at 10 µM [1, 4]: 2 ± 1%
viability at 10 µM [2, 4]: 8 ± 2%
melting point: 105 to 106 °C
viability at 46 h, 10 μM [3]: 5 ± 1%

CN(C)CCCNCCC(=O)Nc1cccc2c1C(=O)c1c(NC(=O)CCNCCCN(C)C)cccc1C2=O [Compound 4j, 1,8-Bis[2-(dimethylpropanediamino)propionamido]anthraquinone]
viability at 10 µM [1, 4]: 9 ± 2%
viability at 10 µM [2, 4]: 22 ± 9%
melting point: 107 to 108 °C
viability at 46 h, 10 μM [3]: 33 ± 16%

CCN(C)CCC(=O)Nc1cccc2c1C(=O)c1c(NC(=O)CCN(C)CC)cccc1C2=O [Compound 4k]
viability at 10 µM [1, 4]: 1 ± 3%
viability at 10 µM [2, 4]: 7 ± 3%
melting point: 129 to 130 °C
viability at 46 h, 10 μM [3]: 2%

(S)-1,8-Bis[2-(phenylglycin methyl ester)acetamido]anthraquinone [Compound 3j]
inhibition of proliferation of tumor cells GBM 8401 (in words) [1]: inhibit proliferation; also recorded: quite good inhibition effects
inhibition of growth of tumor cells GBM 8901 (in words) [2]: inhibit growth
